Experiments:
[1] = molecular target: cGMP-specific 3',5'-cyclic phosphodiesterase (Homo sapiens, UniProt O76074); test: DRUGMATRIX: Phosphodiesterase PDE5 enzyme inhibition (substrate: [3H]cGMP + cGMP); format: tissue-based; conditions: platelet; Not Active = under 50% inhibition at 10 µM
[2] = molecular target: Sodium-dependent dopamine transporter (Homo sapiens, UniProt Q01959); test: DRUGMATRIX: Dopamine Transporter radioligand binding (ligand: [125I] RTI-55); format: cell membranes, CHO-K1, Membrane; conditions: cho-k1; Not Active = under 50% inhibition at 10 µM
Chain of Sodium-dependent dopamine transporter (Q01959 whole entry): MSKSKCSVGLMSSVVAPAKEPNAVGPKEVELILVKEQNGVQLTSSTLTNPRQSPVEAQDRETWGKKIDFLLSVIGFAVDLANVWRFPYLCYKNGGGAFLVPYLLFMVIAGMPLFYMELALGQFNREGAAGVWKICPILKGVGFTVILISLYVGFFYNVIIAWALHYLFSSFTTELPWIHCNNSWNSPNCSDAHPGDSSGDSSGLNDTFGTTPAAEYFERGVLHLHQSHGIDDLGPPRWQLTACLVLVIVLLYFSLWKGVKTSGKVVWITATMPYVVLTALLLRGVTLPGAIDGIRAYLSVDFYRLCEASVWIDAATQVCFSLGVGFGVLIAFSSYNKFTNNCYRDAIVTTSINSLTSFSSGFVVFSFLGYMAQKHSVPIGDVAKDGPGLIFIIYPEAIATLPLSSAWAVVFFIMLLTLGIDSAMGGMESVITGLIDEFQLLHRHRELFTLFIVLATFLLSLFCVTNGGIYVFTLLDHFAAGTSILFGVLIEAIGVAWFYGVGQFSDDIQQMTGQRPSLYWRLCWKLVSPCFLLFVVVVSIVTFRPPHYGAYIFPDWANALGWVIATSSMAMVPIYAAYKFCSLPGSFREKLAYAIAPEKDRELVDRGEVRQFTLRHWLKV

[3] = molecular target: T1, Neuropeptide Y receptor type 1 (Homo sapiens, UniProt P25929); format: cell membranes, Membrane; conditions: sk-n-mc; note: in other assays of this panel Not Active means under 50% inhibition at 10 µM
T1 sequence (P25929 whole entry): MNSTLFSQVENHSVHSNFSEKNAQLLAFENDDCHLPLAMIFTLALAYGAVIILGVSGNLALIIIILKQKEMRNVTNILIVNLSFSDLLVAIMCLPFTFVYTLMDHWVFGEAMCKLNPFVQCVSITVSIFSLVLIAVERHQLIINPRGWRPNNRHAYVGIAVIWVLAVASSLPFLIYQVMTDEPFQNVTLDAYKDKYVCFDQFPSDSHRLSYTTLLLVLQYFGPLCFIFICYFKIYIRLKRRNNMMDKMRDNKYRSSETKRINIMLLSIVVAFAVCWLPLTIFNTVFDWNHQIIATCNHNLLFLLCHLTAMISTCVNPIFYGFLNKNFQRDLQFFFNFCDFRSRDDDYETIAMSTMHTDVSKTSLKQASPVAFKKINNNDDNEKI

[4] = molecular target: T2, Vasoactive intestinal polypeptide receptor 1 (Homo sapiens, UniProt P32241); format: cell membranes, Membrane; conditions: ht-29; note: in other assays of this panel Not Active means under 50% inhibition at 10 µM
T2 sequence (P32241 whole entry): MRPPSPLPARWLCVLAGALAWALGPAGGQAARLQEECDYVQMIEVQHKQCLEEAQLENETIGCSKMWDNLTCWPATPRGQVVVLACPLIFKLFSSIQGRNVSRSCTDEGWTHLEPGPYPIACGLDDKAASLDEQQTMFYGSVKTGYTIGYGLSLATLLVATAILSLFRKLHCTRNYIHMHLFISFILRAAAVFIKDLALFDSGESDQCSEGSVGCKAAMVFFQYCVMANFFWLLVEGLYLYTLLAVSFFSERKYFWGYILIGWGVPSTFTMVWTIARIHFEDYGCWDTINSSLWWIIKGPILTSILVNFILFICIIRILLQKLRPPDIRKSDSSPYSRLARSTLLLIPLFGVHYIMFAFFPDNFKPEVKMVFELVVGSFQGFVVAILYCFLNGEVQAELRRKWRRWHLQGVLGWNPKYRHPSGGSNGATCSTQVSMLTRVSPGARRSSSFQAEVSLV

[5] = molecular target: Platelet-activating factor receptor (Homo sapiens, UniProt P25105); format: tissue-based; note: in other assays of this panel Not Active means under 50% inhibition at 10 µM
Chain of Platelet-activating factor receptor (P25105 whole entry): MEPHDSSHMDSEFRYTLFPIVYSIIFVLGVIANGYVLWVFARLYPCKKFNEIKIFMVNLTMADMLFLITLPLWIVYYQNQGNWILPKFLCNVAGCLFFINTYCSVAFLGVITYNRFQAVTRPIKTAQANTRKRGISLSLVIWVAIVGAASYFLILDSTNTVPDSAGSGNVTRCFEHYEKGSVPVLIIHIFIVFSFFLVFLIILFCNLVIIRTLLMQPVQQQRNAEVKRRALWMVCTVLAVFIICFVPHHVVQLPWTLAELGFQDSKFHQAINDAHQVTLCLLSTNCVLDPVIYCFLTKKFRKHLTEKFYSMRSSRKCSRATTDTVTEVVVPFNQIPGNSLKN

[6] = DRUGMATRIX: Atrial Natriuretic Factor (ANF) radioligand binding (ligand: [125I] ANF (rat)); format: cell membranes, Cavia porcellus, Dunkin-Hartley, Adrenal gland, Membrane; conditions: Not Active = under 50% inhibition at 10 µM
Glucocorticoid receptor = molecular target: T3, Glucocorticoid receptor (Homo sapiens, UniProt P04150); conditions: hela s3; note: in other assays of this panel Not Active means under 50% inhibition at 10 µM
T3 sequence (P04150 whole entry): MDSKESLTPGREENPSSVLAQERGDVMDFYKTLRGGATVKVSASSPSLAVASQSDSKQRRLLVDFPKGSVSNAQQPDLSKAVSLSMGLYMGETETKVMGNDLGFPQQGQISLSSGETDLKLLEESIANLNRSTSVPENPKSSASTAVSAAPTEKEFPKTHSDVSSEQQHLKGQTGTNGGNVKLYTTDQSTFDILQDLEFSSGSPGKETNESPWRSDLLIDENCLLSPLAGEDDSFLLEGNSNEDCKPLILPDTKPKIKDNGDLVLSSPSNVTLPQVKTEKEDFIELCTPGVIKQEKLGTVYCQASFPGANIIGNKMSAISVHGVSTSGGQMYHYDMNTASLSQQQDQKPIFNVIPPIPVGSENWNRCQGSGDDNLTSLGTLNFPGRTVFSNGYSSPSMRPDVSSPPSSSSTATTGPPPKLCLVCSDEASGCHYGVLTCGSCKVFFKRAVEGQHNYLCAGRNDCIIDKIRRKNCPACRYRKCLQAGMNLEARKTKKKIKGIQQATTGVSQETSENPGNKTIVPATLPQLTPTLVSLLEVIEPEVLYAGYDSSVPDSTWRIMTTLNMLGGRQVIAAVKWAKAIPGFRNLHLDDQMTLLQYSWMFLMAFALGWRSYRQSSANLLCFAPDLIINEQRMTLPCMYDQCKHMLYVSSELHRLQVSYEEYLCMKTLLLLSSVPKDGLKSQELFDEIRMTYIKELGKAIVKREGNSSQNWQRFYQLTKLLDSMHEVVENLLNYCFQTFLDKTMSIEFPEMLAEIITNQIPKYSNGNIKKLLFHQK

[7] = molecular target: Epidermal growth factor receptor (Homo sapiens, UniProt P00533); test: DRUGMATRIX: Protein Tyrosine Kinase, EGF Receptor enzyme inhibition (substrate: Poly(Glu:Tyr)); format: cell-based, Insect cells; conditions: insect cells; Not Active = under 50% inhibition at 10 µM
Chain of Epidermal growth factor receptor (P00533 whole entry): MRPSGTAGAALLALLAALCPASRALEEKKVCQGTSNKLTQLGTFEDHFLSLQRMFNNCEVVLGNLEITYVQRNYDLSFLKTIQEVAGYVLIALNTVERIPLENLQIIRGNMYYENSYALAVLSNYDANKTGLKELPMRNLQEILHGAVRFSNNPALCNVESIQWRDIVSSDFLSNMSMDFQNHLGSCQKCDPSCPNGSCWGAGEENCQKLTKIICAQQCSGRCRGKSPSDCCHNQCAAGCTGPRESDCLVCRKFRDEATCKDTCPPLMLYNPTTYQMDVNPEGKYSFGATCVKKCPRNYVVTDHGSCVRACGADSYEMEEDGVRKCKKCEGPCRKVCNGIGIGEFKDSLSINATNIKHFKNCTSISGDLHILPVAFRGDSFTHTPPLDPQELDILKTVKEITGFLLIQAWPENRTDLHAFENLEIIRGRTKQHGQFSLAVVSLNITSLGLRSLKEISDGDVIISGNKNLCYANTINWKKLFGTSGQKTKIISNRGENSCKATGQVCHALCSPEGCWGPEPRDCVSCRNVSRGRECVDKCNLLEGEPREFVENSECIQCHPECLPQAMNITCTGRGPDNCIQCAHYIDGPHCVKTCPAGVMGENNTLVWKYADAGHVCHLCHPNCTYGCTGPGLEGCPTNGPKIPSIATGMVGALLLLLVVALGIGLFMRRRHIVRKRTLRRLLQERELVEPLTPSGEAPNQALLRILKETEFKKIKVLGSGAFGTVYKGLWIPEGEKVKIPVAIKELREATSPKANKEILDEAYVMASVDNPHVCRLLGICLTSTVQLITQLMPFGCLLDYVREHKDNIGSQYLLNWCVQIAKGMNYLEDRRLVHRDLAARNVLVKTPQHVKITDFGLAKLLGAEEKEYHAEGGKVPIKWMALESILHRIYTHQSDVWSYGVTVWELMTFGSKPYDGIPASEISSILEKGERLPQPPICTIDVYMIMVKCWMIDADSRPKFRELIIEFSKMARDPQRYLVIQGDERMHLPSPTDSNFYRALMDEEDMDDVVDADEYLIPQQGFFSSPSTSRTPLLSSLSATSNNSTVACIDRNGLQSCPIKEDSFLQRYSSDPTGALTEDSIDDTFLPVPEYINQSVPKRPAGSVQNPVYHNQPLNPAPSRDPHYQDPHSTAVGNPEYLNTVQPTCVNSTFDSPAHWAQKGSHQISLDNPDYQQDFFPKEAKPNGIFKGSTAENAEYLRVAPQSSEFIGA

CC[C@@]1(O)C[C@H](O[C@H]2C[C@H](N(C)C)[C@H](O[C@H]3C[C@H](O)[C@H](O[C@H]4CCC(=O)[C@H](C)O4)[C@H](C)O3)[C@H](C)O2)c2c(cc3c(c2O)C(=O)c2c(O)cccc2C3=O)[C@H]1C(=O)OC [ACLARUBICIN]
Not Active: IC50 [1] | IC50 [2] | IC50 [3] | IC50 [4] | IC50 [5] | IC50 [6] | Ki [6] | IC50 (Glucocorticoid receptor) | IC50 [7]

Nc1nc2c(ncn2COCCO)c(=O)[nH]1 [ACYCLOVIR]
Not Active: IC50 [1] | IC50 [2] | IC50 [3] | IC50 [4] | IC50 [5] | IC50 [6] | Ki [6] | IC50 (Glucocorticoid receptor) | IC50 [7]

Cc1c(C)c2c(c(C)c1O)CC[C@@](C)(CCC[C@H](C)CCC[C@H](C)CCCC(C)C)O2 [ALPHA-TOCOPHEROL]
Not Active: IC50 [1] | IC50 [2] | IC50 [3] | IC50 [4] | IC50 [5] | IC50 [6] | Ki [6] | IC50 (Glucocorticoid receptor) | IC50 [7]

CN(C)c1nc(N(C)C)nc(N(C)C)n1 [ALTRETAMINE]
Not Active: IC50 [1] | IC50 [2] | IC50 [3] | IC50 [4] | IC50 [5] | IC50 [6] | Ki [6] | IC50 (Glucocorticoid receptor) | IC50 [7]

Nc1c(Br)cc(Br)cc1CN[C@H]1CC[C@H](O)CC1 [AMBROXOL]
Not Active: IC50 [1] | IC50 [2] | IC50 [3] | IC50 [4] | IC50 [5] | IC50 [6] | Ki [6] | IC50 (Glucocorticoid receptor) | IC50 [7]

NCCCCCC(=O)O [AMINOCAPROIC ACID]
Not Active: IC50 [1] | IC50 [2] | IC50 [3] | IC50 [4] | IC50 [5] | IC50 [6] | Ki [6] | IC50 (Glucocorticoid receptor) | IC50 [7]

CCC1(c2ccc(N)cc2)CCC(=O)NC1=O (configuration not stated) [AMINOGLUTETHIMIDE]
Not Active: IC50 [1] | IC50 [2] | IC50 [3] | IC50 [4] | IC50 [5] | IC50 [6] | Ki [6] | IC50 (Glucocorticoid receptor) | IC50 [7]

Cc1ccc(/N=C/N(C)/C=N/c2ccc(C)cc2C)c(C)c1 [AMITRAZ]
Not Active: IC50 [1] | IC50 [2] | IC50 [3] | IC50 [4] | IC50 [5] | IC50 [6] | Ki [6] | IC50 (Glucocorticoid receptor) | IC50 [7]

COc1ccc(C[C@H]2NC[C@H](O)[C@H]2OC(C)=O)cc1 [ANISOMYCIN]
Not Active: IC50 [1] | Ki [1] | IC50 [2] | Ki [2] | IC50 [3] | Ki [3] | IC50 [4] | Ki [4] | IC50 [5] | Ki [5] | IC50 [6] | Ki [6] | IC50 (Glucocorticoid receptor) | Ki (Glucocorticoid receptor) | IC50 [7] | Ki [7]

Nc1ncn([C@@H]2O[C@H](CO)[C@@H](O)[C@H]2O)c(=O)n1 [AZACITIDINE]
Not Active: IC50 [1] | IC50 [2] | IC50 [3] | IC50 [4] | IC50 [5] | IC50 [6] | Ki [6] | IC50 (Glucocorticoid receptor) | IC50 [7]

CN(C)C(=O)Oc1cc(OC(=O)N(C)C)cc(C(O)CNC(C)(C)C)c1 (configuration not stated) [BAMBUTEROL]
Not Active: IC50 [1] | IC50 [2] | IC50 [3] | IC50 [4] | IC50 [5] | IC50 [6] | Ki [6] | IC50 (Glucocorticoid receptor) | IC50 [7]

c1ccc2c(c1)c1cccc3ccc4cccc2c4c31 [BENZO[E]PYRENE]
Not Active: IC50 [1] | IC50 [2] | IC50 [3] | IC50 [4] | IC50 [5] | IC50 [6] | Ki [6] | IC50 (Glucocorticoid receptor) | IC50 [7]

CNCCc1ccccn1 [BETAHISTINE]
Not Active: IC50 [1] | IC50 [2] | IC50 [3] | IC50 [4] | IC50 [5] | IC50 [6] | Ki [6] | IC50 (Glucocorticoid receptor) | IC50 [7]

CN(Cc1ccc(C(C)(C)C)cc1)Cc1cccc2ccccc12 [BUTENAFINE]
Not Active: IC50 [1] | IC50 [2] | IC50 [3] | IC50 [4] | IC50 [5] | IC50 [6] | Ki [6] | IC50 (Glucocorticoid receptor) | IC50 [7]

C[C@H](CS)C(=O)N1CCC[C@H]1C(=O)O [CAPTOPRIL]
Not Active: IC50 [1] | IC50 [2] | IC50 [3] | IC50 [4] | IC50 [5] | IC50 [6] | Ki [6] | IC50 (Glucocorticoid receptor) | IC50 [7]
